Assay results taken from PubChem BioAssay AID248 (DTP/NCI, 2004).
Several values for one entry are separate records, joined by “and”; a condition that tells them apart may be missing. Equal values may be shown once. Toxic doses and inconclusive results are not listed.

Tested on: L1210 leukemia ip in BDF1 mice, survival T/C
Experiment: NCI In Vivo Anticancer Drug Screen. Data for tumor model L1210 Leukemia (intraperitoneal) in B6D2F1 (BDF1) mice
Conditions: endpoint: mean survival time, higher = longer survival
Method in brief: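 Ratio derived from survival: compound-dosed mice over vehicle-dosed mice, all bearing a transplantable tumor.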

[1] = dose: 20.0 mg/kg/injection, schedule: Q01DX001 (ip), vehicle: carboxymethylcellulose (CMC)

In the case of `Cc1ccc(C)c(NC(=S)NC(=O)c2ccc(Cl)cc2Cl)c1`, the T/C (dose: 100.0 mg/kg/injection, schedule: Q01DX001 (ip), vehicle: saline with Tween-80) is reported as 104 % of control, the T/C (dose: 100.0 mg/kg/injection, schedule: Q04DX002 (ip), vehicle: saline with Tween-80) is reported as 95 % of control and 100 % of control and the T/C (dose: 100.0 mg/kg/injection, schedule: Q04DX003 (ip), vehicle: saline with Tween-80) is reported as 102 % of control. The T/C (dose: 200.0 mg/kg/injection, schedule: Q01DX001 (ip), vehicle: saline with Tween-80) was 104 % of control, the T/C (dose: 200.0 mg/kg/injection, schedule: Q04DX002 (ip), vehicle: saline with Tween-80) was 96 % of control and 110 % of control and the T/C (dose: 200.0 mg/kg/injection, schedule: Q04DX003 (ip), vehicle: saline with Tween-80) was 105 % of control. The T/C (dose: 400.0 mg/kg/injection, schedule: Q01DX001 (ip), vehicle: saline with Tween-80) was 100 % of control, the T/C (dose: 400.0 mg/kg/injection, schedule: Q04DX002 (ip), vehicle: saline with Tween-80) was 96 % of control and 102 % of control and the T/C (dose: 400.0 mg/kg/injection, schedule: Q04DX003 (ip), vehicle: saline with Tween-80) was 100 % of control.
For `COc1cc(N(CCCl)CCCl)ccc1C=Nc1ccccc1C(=O)O`, the T/C (dose: 2.3 mg/kg/injection, schedule: Q01DX015 (ip), vehicle: carboxymethylcellulose (CMC)) was 117 % of control, the T/C (dose: 5.0 mg/kg/injection, schedule: Q01DX001 (ip), vehicle: carboxymethylcellulose (CMC)) was 121 % of control and the T/C (dose: 5.3 mg/kg/injection, schedule: Q01DX015 (ip), vehicle: carboxymethylcellulose (CMC)) was 122 % of control. The T/C (dose: 10.0 mg/kg/injection, schedule: Q01DX015 (ip), vehicle: carboxymethylcellulose (CMC)) was 154 % of control, the T/C (dose: 15.0 mg/kg/injection, schedule: Q01DX015 (ip), vehicle: carboxymethylcellulose (CMC)) was 119 % of control and the T/C (dose: 16.0 mg/kg/injection, schedule: Q01DX015 (ip), vehicle: carboxymethylcellulose (CMC)) was 123 % of control. For the same compound, the T/C [1] was 162 % of control, the T/C (dose: 22.0 mg/kg/injection, schedule: Q01DX001 (ip), vehicle: carboxymethylcellulose (CMC)) was 150 % of control and the T/C (dose: 33.0 mg/kg/injection, schedule: Q01DX001 (ip), vehicle: carboxymethylcellulose (CMC)) was 164 % of control. For the same compound, the T/C (dose: 50.0 mg/kg/injection, schedule: Q01DX001 (ip), vehicle: carboxymethylcellulose (CMC)) was 100 % of control.
With `CC1=NCC[N-]CC[N-]CCN=C(C)C2CCCC1[N-]2.[Mn+3]` the T/C (dose: 10.0 mg/kg/injection, schedule: Q01DX001 (ip), vehicle: saline) was 105 % of control, the T/C (dose: 20.0 mg/kg/injection, schedule: Q01DX001 (ip), vehicle: saline) was 102 % of control and the T/C (dose: 40.0 mg/kg/injection, schedule: Q01DX001 (ip), vehicle: saline) was 102 % of control.
In the case of `COc1ccc(NC(=O)Nc2cccc(C(F)(F)F)c2)c(OC)c1`, the T/C (dose: 100.0 mg/kg/injection, schedule: Q01DX009 (ip), vehicle: gum acacia) is reported as 102 % of control, the T/C (dose: 200.0 mg/kg/injection, schedule: Q01DX009 (ip), vehicle: gum acacia) is reported as 98 % of control and the T/C (dose: 400.0 mg/kg/injection, schedule: Q01DX009 (ip), vehicle: gum acacia) is reported as 101 % of control.
In the case of `CN1CCCCC1CCC1c2ccccc2CCc2ccccc21` (configuration not stated), the T/C (dose: 1.56 mg/kg/injection, schedule: Q01DX009 (ip), vehicle: saline) is reported as 104 % of control, the T/C (dose: 3.12 mg/kg/injection, schedule: Q01DX009 (ip), vehicle: saline) is reported as 104 % of control and the T/C (dose: 6.25 mg/kg/injection, schedule: Q01DX009 (ip), vehicle: saline) is reported as 98 % of control and 99 % of control. The T/C (dose: 12.5 mg/kg/injection, schedule: Q01DX009 (ip), vehicle: saline) was 94 % of control and 103 % of control and the T/C (dose: 25.0 mg/kg/injection, schedule: Q01DX009 (ip), vehicle: saline) was 107 % of control and 116 % of control.
With `COC1=C(OC)C(=O)C(SC/C=C(\C)CCCC(C)CCCC(C)CCCC(C)C)=CC1=O` (configuration not stated) the T/C (dose: 6.25 mg/kg/injection, schedule: Q01DX009 (ip), vehicle: saline with Tween-80) was 103 % of control, the T/C (dose: 12.5 mg/kg/injection, schedule: Q01DX009 (ip), vehicle: saline with Tween-80) was 105 % of control and the T/C (dose: 25.0 mg/kg/injection, schedule: Q01DX009 (ip), vehicle: saline with Tween-80) was 100 % of control and 113 % of control. The T/C (dose: 50.0 mg/kg/injection, schedule: Q01DX009 (ip), vehicle: saline with Tween-80) was 104 % of control and 122 % of control, the T/C (dose: 100.0 mg/kg/injection, schedule: Q01DX009 (ip), vehicle: saline with Tween-80) was 105 % of control and 122 % of control and the T/C (dose: 200.0 mg/kg/injection, schedule: Q01DX009 (ip), vehicle: saline with Tween-80) was 115 % of control and 124 % of control. For the same compound, the T/C (dose: 400.0 mg/kg/injection, schedule: Q01DX009 (ip), vehicle: saline with Tween-80) was 115 % of control.
With `CCCCCCCCCCCCCCCC(=O)NCC[N+](CC)(CC)Cc1ccc(C[N+](CC)(CC)CCNC(=O)CCCCCCCCCCCCCCC)cc1` the T/C (dose: 75.0 mg/kg/injection, schedule: Q01DX001 (ip), vehicle: saline) was 98 % of control.
`CC1(C)C2CC3C(=CCCC3C#N)C1C2` (configuration not stated) was tested, and the T/C (dose: 100.0 mg/kg/injection, schedule: Q01DX009 (ip), vehicle: Klucel (hydroxypropylcellulose) (HPC)) was 105 % of control, the T/C (dose: 100.0 mg/kg/injection, schedule: Q04DX003 (ip), vehicle: Klucel (hydroxypropylcellulose) (HPC)) was 97 % of control and the T/C (dose: 200.0 mg/kg/injection, schedule: Q01DX009 (ip), vehicle: Klucel (hydroxypropylcellulose) (HPC)) was 97 % of control. The T/C (dose: 200.0 mg/kg/injection, schedule: Q04DX003 (ip), vehicle: Klucel (hydroxypropylcellulose) (HPC)) was 95 % of control, the T/C (dose: 400.0 mg/kg/injection, schedule: Q01DX009 (ip), vehicle: Klucel (hydroxypropylcellulose) (HPC)) was 103 % of control and the T/C (dose: 400.0 mg/kg/injection, schedule: Q04DX003 (ip), vehicle: Klucel (hydroxypropylcellulose) (HPC)) was 92 % of control.
With `C=C(C(=O)OC1CC2CCC(C1)N2C)c1ccccc1` (configuration not stated) the T/C (dose: 1.25 mg/kg/injection, schedule: Q01DX Z (ip), vehicle: saline) was 90 % of control, the T/C (dose: 1.25 mg/kg/injection, schedule: Q04DX003 (ip), vehicle: Klucel (hydroxypropylcellulose) (HPC)) was 113 % of control and the T/C (dose: 2.5 mg/kg/injection, schedule: Q01DX Z (ip), vehicle: saline) was 105 % of control. The T/C (dose: 2.5 mg/kg/injection, schedule: Q04DX003 (ip), vehicle: Klucel (hydroxypropylcellulose) (HPC)) was 101 % of control, the T/C (dose: 5.0 mg/kg/injection, schedule: Q01DX Z (ip), vehicle: saline) was 97 % of control and the T/C (dose: 5.0 mg/kg/injection, schedule: Q04DX003 (ip), vehicle: Klucel (hydroxypropylcellulose) (HPC)) was 107 % of control. The T/C (dose: 10.0 mg/kg/injection, schedule: Q01DX001 (ip), vehicle: carboxymethylcellulose (CMC)) was 111 % of control, the T/C (dose: 10.0 mg/kg/injection, schedule: Q04DX003 (ip), vehicle: Klucel (hydroxypropylcellulose) (HPC)) was 106 % of control and the T/C [1] was 93 % of control.
In the case of `c1ccc(N2CCSCC2)cc1`, the T/C (dose: 12.0 mg/kg/injection, schedule: Q01DX Z (ip), vehicle: methylcellulose (MC)) is reported as 108 % of control, the T/C (dose: 18.0 mg/kg/injection, schedule: Q01DX Z (ip), vehicle: methylcellulose (MC)) is reported as 110 % of control and the T/C (dose: 27.0 mg/kg/injection, schedule: Q01DX Z (ip), vehicle: methylcellulose (MC)) is reported as 103 % of control. For the same compound, the T/C (dose: 40.5 mg/kg/injection, schedule: Q01DX Z (ip), vehicle: methylcellulose (MC)) was 92 % of control.
